Paper PMC6429200, “Synthesis and Broad Antiviral Activity of Novel 2-aryl-isoindolin-1-ones towards Diverse Enterovirus A71 Clinical Isolates” (Molecules, 2019)
Where two headings read alike, the source gives them in different places.

Assays:
[1] = Cytotoxicity assay (CPE) on Vero cells; format: cell-based; conditions: African green monkey
Method: (§1) An in-vitro antiviral assay was established using the Africa monkey kidney cell line Vero which was infected with different EV-A71 clinical isolates (BrCr, H, Shenzhen98 and Jiangsu52). A total of 24 synthetic compounds were initially screened in such an assay to determine their inhibitory effect on virus replication at 3-fold diluted concentrations serial (400~0.18 μM). The 50% effective concentration (EC50) of each compound was calculated according to its inhibitory rate values with the Reed–Muench method. The 50% cytotoxic concentration (CC50) was defined as the concentration that inhibited 50% cellular growth in comparison with the controls. The selectivity index (SI) was calculated as CC50/EC50. […] Generally, the EV-A71 H strain was less sensitive to most of the active compounds as compared to the other virus strains.
African green monkey kidney (Vero) cells were purchased from the American Type Culture Collection (ATCC) and were cultured in minimum essential medium (MEM) supplemented with 10% fetal bovine serum (FBS) (GIBCO) and antibiotics (100 U/mL penicillin and […] streptomycin) at 37 °C in a 5% CO2 incubator.
The cytotoxic effects of compounds on Vero cells were detected by the cytopathic effect (CPE) assay. Briefly, cells (3 × 10^4 cells/well) were seeded into 96-well culture plates and incubated overnight. Then, the medium was removed and different concentrations of compounds were applied in triplicate. After 3 days of incubation, the CC50 was defined as the concentration that inhibited 50% cellular growth in comparison with the untreated controls, as calculated by the Reed–Muench method.

EV-A71 strain BrCr = experiment: CPE inhibition assay for anti-EV-A71 in Vero cells, BrCr strain; format: cell-based, Enterovirus 71 (EV-A71); conditions: for BrCr SI: CC50/EC50; for EC50: Enterovirus A, EVA71, Vero cells, 100TCID50, 48 h
Method: as §1
(§2) EV-A71 strain ShenZhen98 (SZ98) was isolated from the throat swab sample of an HFMD case which occurred in 1998 in China. This was kindly provided by Dr. Qi Jin, Institute of Pathogen Biology, Chinese Academy of Medical Science and Peking Union Medical School, Beijing, China. EV-A71 strains BrCr (VR-1775) and H (VR-1432) were purchased from the ATCC. The EV-A71 strain JS52 was a kind gift from Dr. Xiangzhong Ye, Beijing Wantai Biological Pharmacy Enterprise Co., Ltd. EV-A71 were all passaged in Vero cells.
(§3) The anti-EV-A71 activity of compounds was determined by the CPE inhibition method. Briefly, cells (3 × 10^4 cells/well) were plated into 96-well culture plates for incubation for 24 h. The medium was then removed and cells were infected with EV-A71 with 100TCID50 (50% tissue culture infective doses) in serum-free medium for 1 h at 37 °C. Then, the unbound viruses were removed and various concentrations of compounds were supplemented and incubated for another 48 h. The EC50 was determined by the Reed–Muench method. The selectivity index was calculated as the ratio of CC50/EC50 [15].

EV-A71 strain H = experiment: CPE inhibition assay for anti-EV-A71 in Vero cells, H strain; format: cell-based, Enterovirus 71 (EV-A71); conditions: for H SI: CC50/EC50; for EC50: Enterovirus A, EVA71, Vero cells, 100TCID50, 48 h
Method: as §1, §2, §3

[2] = system: EV-A71 strain ShenZhen98 (SZ98); experiment: CPE inhibition assay for anti-EV-A71 in Vero cells, Shenzhen98 strain; format: cell-based, Enterovirus 71 (EV-A71); conditions: for Shenzhen98 SI: CC50/EC50; for EC50: Enterovirus A, EVA71, Vero cells, 100TCID50, 48 h
Method: as §1, §2, §3

[3] = system: EV-A71 strain Jiangsu52 (JS52); experiment: CPE inhibition assay for anti-EV-A71 in Vero cells, Jiangsu52 strain; format: cell-based, Enterovirus 71 (EV-A71); conditions: for Jiangsu52 SI: CC50/EC50; for EC50: Enterovirus A, EVA71, Vero cells, 100TCID50, 48 h
Method: as §1, §2, §3

[4] = system: four EV-A71 strains (BrCr, H, Shenzhen98, Jiangsu52); experiment: CPE inhibition assay, summary over four EV-A71 strains; format: cell-based, Enterovirus 71 (EV-A71); conditions: for EC50: Enterovirus A, EVA71, Vero, read-out: EC50 towards four EV-A71 strains
Method: as §1, §3

EV71 = system: EV71; set-up: method as in PMID 23519203; conditions: cited from earlier work
[5] = Vero cells, 3 days of incubation, Reed–Muench, read-out: CC50

| SMILES | CC50 at 3 days [1, 5] [µM] | BrCr SI (EV-A71 strain BrCr) | EC50 (EV-A71 strain BrCr) [µM] | H SI (EV-A71 strain H) | EC50 (EV-A71 strain H) [µM] | Shenzhen98 SI [2] | EC50 [2] [µM] | Jiangsu52 SI [3] | EC50 [3] [µM] | EC50 [4] [µM] | SI towards four EV-A71 strains ([4]; CC50/EC50, range over four strains) | EC50 fold higher than pirodavir ([4]; relative to reference compound pirodavir) | fold loss in activity ([4]; against four in vitro models, relative to A3) [fold] | CC50 at 3 days [1] [µM] | SI (EV71; Figure 1) | IC50 (EV71; Figure 1, multiple virus strains, read-out: Anti-EV71 IC50) [µM] | anti-EV-A71 activity (EV71; against multiple virus strains) |
| --- | --- | --- | --- | --- | --- | --- | --- | --- | --- | --- | --- | --- | --- | --- | --- | --- | --- |
| Cc1ccc(N2Cc3cc(N)ccc3C2=O)cc1 [Compound 6, 5-amino-2-(p-tolyl)isoindolin-1-one] | 173 ± 34 | 91 | 1.89 ± 0.32 | 82 | 2.11 ± 0.23 | 86 | 2 ± 0.25 | 91 | 1.89 ± 0.32 | < 10 | – | – | – | – | – | – | – |
| O=C1c2ccccc2CN1c1ccc(Br)cc1 [Compound A4, 2-(4-bromophenyl)isoindolin-1-one] | 173 ± 34 | 140 | 1.23 ± 0.28 | 98 | 1.76 ± 0.19 | 98 | 1.76 ± 0.15 | 131 | 1.32 ± 0.22 | 1.23 to 1.76 | 98–199 | 2–4 fold | – | – | – | – | – |
| COc1ccc(N2Cc3ccccc3C2=O)cc1 [Compound A7, 2-(4-methoxyphenyl)isoindolin-1-one] | 318 ± 54.5 | 44 | 7.27 ± 0.86 | 34 | 9.35 ± 1.44 | 44 | 7.27 ± 0.86 | 40 | 7.92 ± 0.86 | < 10 | – | – | – | – | – | – | – |
| CCCNc1ccc2c(c1)C(=O)N(c1ccc(OC)cc1)C2 [Compound B1, 2-(4-methoxyphenyl)-6-(propylamino)isoindolin-1-one] | 68.4 ± 5.72 | 43 | 1.59 ± 0.35 | 13 | 5.41 ± 0.63 | 43 | 1.59 ± 0.35 | 43 | 1.59 ± 0.43 | < 10 | – | – | – | – | – | – | – |
| CCC(=O)Nc1ccc2c(c1)CN(c1ccc(OC)cc1)C2=O [Compound C2, N-(2-(4-methoxyphenyl)-1-oxoisoindolin-5-yl)propionamide] | 231 | / (/ represents selectivity index (SI) value of less than 10) | – | / (/ represents selectivity index (SI) value of less than 10) | – | / (/ represents selectivity index (SI) value of less than 10) | – | / (/ represents selectivity index (SI) value of less than 10) | – | – | – | – | – | – | – | – | – |
| CCC(=O)Nc1ccc2c(c1)CN(c1ccc(C)cc1)C2=O [Compound C3, N-(1-oxo-2-(p-tolyl)isoindolin-5-yl)propionamide] | 113 ± 17.2 | / (/ represents selectivity index (SI) value of less than 10) | – | / (/ represents selectivity index (SI) value of less than 10) | – | / (/ represents selectivity index (SI) value of less than 10) | – | / (/ represents selectivity index (SI) value of less than 10) | – | – | – | – | – | – | – | – | – |
| O=C1c2cc(-c3ccccc3)ccc2CN1c1ccc(Cl)cc1 [Compound D1] | 115 | / (/ represents selectivity index (SI) value of less than 10) | – | / (/ represents selectivity index (SI) value of less than 10) | 66.7 | / (/ represents selectivity index (SI) value of less than 10) | – | 2 | 56.5 ± 14.5 | – | – | – | – | – | – | – | – |
| O=C1c2cc(Nc3ccccc3)ccc2CN1c1ccc(Cl)cc1 [Compound D2] | 115 | / (/ represents selectivity index (SI) value of less than 10) | 19.6 ± 3.77 | / (/ represents selectivity index (SI) value of less than 10) | 19.6 ± 3.77 | / (/ represents selectivity index (SI) value of less than 10) | 19.8 ± 3.4 | / (/ represents selectivity index (SI) value of less than 10) | 15.1 ± 3.23 | – | – | – | 10 | – | – | – | – |
| CN1CCN(c2ccc3c(c2)C(=O)N(c2ccc(Cl)cc2)C3)CC1 [Compound D3, 6-(4-methylpiperazin)-2-(4-chlorophenyl)-isoindolin-1-one] | – | 16 | 2.71 ± 0.35 | 20 | 2.09 ± 0.54 | 11 | 3.73 ± 0.78 | 32 | 1.29 ± 0.33 | < 10 | – | – | – | 42.4 ± 5.47 | – | – | – |
| COc1ccc(C(=O)Nc2ccc(Br)cc2)cc1N [N-pheylbenzoamide hit, 3-amino-N-(4-bromophenyl)-4-methoxybenzamide] | – | – | – | – | – | – | – | – | – | – | – | – | – | – | 51-110 | 5.7 to 12 | moderate anti-EV-A71 activity |
| CCOC(=O)c1ccc(OCCC2CCN(c3ccc(C)nn3)CC2)cc1 [pirodavir, reference compound] | 33.3 | 88 | 0.38 ± 0.04 | 44 | 0.76 ± 0.09 | 67 | 0.5 ± 0.06 | 54 | 0.62 ± 0.1 | 0.38 to 0.76 | – | – | – | – | – | – | – |
